According to patent US11945836B2, “Compositions and methods for treating CNS disorders” (Sage Therapeutics, Inc., priority 2014, dated 2024):

Target: rat brain cortical membranes ([35S]-TBPS binding)
Experiment: Steroid inhibition of [35S]-TBPS binding (radioligand displacement)
Details: 3 nM [35S]-TBPS, in the presence of 5 μM GABA
Protocol: Steroid Inhibition of TBPS Binding
TBPS binding assays using rat brain cortical membranes in the presence of 5 μM GABA has been described (Gee et al, J. Pharmacol. Exp. Ther. 1987, 241, 346-353; Hawkinson et al, Mol. Pharmacol. 1994, 46, 977-985; Lewin, A. H et al., Mol. Pharmacol. 1989, 35, 189-194).
Briefly, cortices are rapidly removed following decapitation of carbon dioxide-anesthetized Sprague-Dawley rats (200-250 g). The cortices are homogenized in 10 volumes of ice-cold 0.32 M sucrose using a glass/teflon homogenizer and centrifuged at 1500×g for 10 min at 4° C. The resultant supernatants are centrifuged at 10,000×g for 20 min at 4° C. to obtain the P2 pellets. The P2 pellets are resuspended in 200 mM NaCl/50 mM Na—K phosphate pH 7.4 buffer and centrifuged at 10,000×g for 10 min at 4° C. This washing procedure is repeated twice and the pellets are resuspended in 10 volumes of buffer. Aliquots (100 uL) of the membrane suspensions are incubated with 3 nM [^35S]-TBPS and 5 μL aliquots of test drug dissolved in dimethyl sulfoxide (DMSO) (final 0.5%) in the presence of 5 μM GABA. The incubation is brought to a final volume of 1.0 mL with buffer. […] Following a 90 min incubation at room temp, the assays are terminated by filtration through glass fiber filters (Schleicher and Schuell No. 32) using a cell harvester (Brandel) and rinsed three times with ice-cold buffer. Filter bound radioactivity is measured by liquid scintillation spectrometry. Non-linear curve fitting of the overall data for each drug averaged for each concentration is done using Prism (GraphPad). […] The concentration of test compound producing 50% inhibition (IC50) of specific binding and the maximal extent of inhibition (Imax) are determined for the individual experiments with the same model used for the overall data and then the means±SEMs of the individual experiments are calculated.
Various compounds are or can be screened to determine their potential as modulators of [^35S]-TBPS binding in vitro. These assays are or can be performed in accordance with the above discussed procedures.

Row | Structure (SMILES) | IC50
1 | C[C@@]1(O)CC[C@H]2[C@H](CC[C@@H]3[C@@H]2CC[C@]2(C)[C@@H](C(=O)c4ccccc4)CC[C@@H]32)C1 [Compound 1] | < 20 nM
2 | C[C@@]1(O)CC[C@H]2[C@H](CC[C@@H]3[C@@H]2CC[C@]2(C)[C@@H](C(=O)c4nc5ccccc5s4)CC[C@@H]32)C1 [Compound 8] | > 100 nM
3 | Cn1ncc(C(=O)[C@H]2CC[C@H]3[C@@H]4CC[C@@H]5C[C@](C)(O)CC[C@@H]5[C@H]4CC[C@]23C)n1 [Compound 99] | > 100 nM
4 | C[C@@]1(O)CC[C@H]2[C@H](CC[C@@H]3[C@@H]2CC[C@]2(C)[C@@H](C(=O)c4ccsc4)CC[C@@H]32)C1 [Compound 10] | < 20 nM
5 | Cc1ccc(C(=O)[C@H]2CC[C@H]3[C@@H]4CC[C@@H]5C[C@](C)(O)CC[C@]5(C)[C@H]4CC[C@]23C)cc1C [Compound 17] | 50 to 100 nM
6 | COc1cccc(C(=O)[C@H]2CC[C@H]3[C@@H]4CC[C@H]5C[C@](C)(O)CC[C@@H]5[C@H]4CC[C@]23C)c1 [Compound 71] | > 100 nM
7 | C[C@@]1(O)CC[C@H]2[C@H](CC[C@@H]3[C@@H]2CC[C@]2(C)[C@@H](C(=O)c4cc(F)cc(F)c4)CC[C@@H]32)C1 [Compound 136, (3,5-difluorophenyl)((3R,5R,8R,9R,10S,13S,14S,17S)-3-hydroxy-3,13-dimethylhexadecahydro-1H-cyclopenta[a]phenanthren-17-yl)methanone] | 20 to 50 nM
8 | COC[C@]12CC[C@@](C)(O)C[C@@H]1CC[C@H]1[C@@H]3CC[C@H](C(=O)c4ccc5c(c4)OCO5)[C@@]3(C)CC[C@@H]12 [Compound 94] | 50 to 100 nM
9 | COC[C@]12CC[C@@](C)(O)C[C@@H]1CC[C@H]1[C@@H]3CC[C@H](C(=O)c4cccc(Cl)c4)[C@@]3(C)CC[C@@H]12 [Compound 110] | 50 to 100 nM
10 | C[C@@]1(O)CC[C@@]2(C)[C@@H](CC[C@@H]3[C@@H]2CC[C@]2(C)[C@@H](C(=O)c4ccc(OC(F)(F)F)cc4)CC[C@@H]32)C1 [Compound 108] | > 100 nM
11 | Cc1cccc(C(=O)[C@H]2CC[C@H]3[C@@H]4CC[C@@H]5C[C@](C)(O)CC[C@@H]5[C@H]4CC[C@]23C)c1 [Compound 74] | 20 to 50 nM
12 | COC[C@]12CC[C@@](C)(O)C[C@@H]1CC[C@H]1[C@@H]3CC[C@H](C(=O)c4ccc(OC)cc4C)[C@@]3(C)CC[C@@H]12 [Compound 96] | > 100 nM
13 | Cc1cccc(C(=O)[C@H]2CC[C@H]3[C@@H]4CC[C@H]5C[C@](C)(O)CC[C@]5(C)[C@H]4CC[C@]23C)c1 [Compound 82] | > 100 nM
14 | Cn1ccnc1C(=O)[C@H]1CC[C@H]2[C@@H]3CC[C@@H]4C[C@](C)(O)CC[C@@H]4[C@H]3CC[C@]12C [Compound 3] | > 100 nM
15 | COc1cccc(C(=O)[C@H]2CC[C@H]3[C@@H]4CC[C@@H]5C[C@](C)(O)CC[C@]5(C)[C@H]4CC[C@]23C)c1 [Compound 63] | 50 to 100 nM
16 | C[C@@]1(O)CC[C@@]2(C)[C@H](CC[C@@H]3[C@@H]2CC[C@]2(C)[C@@H](C(=O)c4ccc5c(c4)OCO5)CC[C@@H]32)C1 [Compound 24] | < 20 nM
17 | COc1ccccc1C(=O)[C@H]1CC[C@H]2[C@@H]3CC[C@@H]4C[C@](C)(O)CC[C@]4(C)[C@H]3CC[C@]12C [Compound 53] | > 100 nM
18 | Cc1ccc(C(=O)[C@H]2CC[C@H]3[C@@H]4CC[C@@H]5C[C@](C)(O)CC[C@@H]5[C@H]4CC[C@]23C)cc1 [Compound 86] | 20 to 50 nM
19 | C[C@@]1(O)CC[C@H]2[C@@H](CC[C@@H]3[C@@H]2CC[C@]2(C)[C@@H](C(=O)c4ccc5ccccc5c4)CC[C@@H]32)C1 [Compound 59] | 50 to 100 nM
20 | C[C@@]1(O)CC[C@@]2(C)[C@H](CC[C@@H]3[C@@H]2CC[C@]2(C)[C@@H](C(=O)c4ccccc4F)CC[C@@H]32)C1 [Compound 84] | > 100 nM
21 | COc1cc(OC)cc(C(=O)[C@H]2CC[C@H]3[C@@H]4CC[C@@H]5C[C@](C)(O)CC[C@@H]5[C@H]4CC[C@]23C)c1 [Compound 130] | 20 to 50 nM
22 | COC[C@]12CC[C@@](C)(O)C[C@@H]1CC[C@H]1[C@@H]3CC[C@H](C(=O)c4cc(C)cc(C)c4)[C@@]3(C)CC[C@@H]12 [Compound 93] | 50 to 100 nM

Target: T1, GABAA receptors α1β2γ2 (Homo sapiens, UniProt P14867+P47870)
T1 construct: expressed in transfected cells; host or cells: LTK (Ltk) cells, stably transfected
Experiment: Patch clamp electrophysiology (QPatch) of recombinant GABAA receptors in Ltk cells
Format: cell-based
Details: 10 μM test article, 2 μM GABA (EC20), Ltk cells stably transfected with α1β2γ2, relative percentage potentiation; read-out: GABA (α1β2γ2) Qpatch in Ltk, % efficacy at 10 μM
Protocol: Patch Clamp Electrophysiology of Recombinant α1β2γ2 and α4β3δ GABAA Receptors
Cellular electrophysiology is used to measure the pharmacological properties of our GABAA receptor modulators in heterologous cell systems. Each compound is tested for its ability to affect GABA mediated currents at a submaximal agonist dose (GABA EC20=2 μM). LTK cells are stably transfected with the α1β2γ2 subunits of the GABA receptor and CHO cells are transiently transfected with the α4β3δ subunits via the Lipofecatamine method. Cells were passaged at a confluence of about 50-80% and then seeded onto 35 mm sterile culture dishes containing 2 ml culture complete medium without antibiotics or antimycotics. Confluent clusters of cells are electrically coupled (Pritchett et al., Science, 1988, 242, 1306-1308). Because responses in distant cells are not adequately voltage clamped and because of uncertainties about the extent of coupling (Verdoorn et al., Neuron 1990, 4, 919-928), cells were cultivated at a density that enables the recording of single cells (without visible connections to other cells).
Whole cell currents were measured with HEKA EPC-10 amplifiers using PatchMaster software or by using the high throughput QPatch platform (Sophion). Bath solution for all experiments contained (in mM): NaCl 137 mM, KCl 4 mM, CaCl2 1.8 mM, MgCl2 1 mM, HEPES 10 mM, D-Glucose 10 mM, pH (NaOH) 7.4. […]

T1 sequence (P14867 28-456): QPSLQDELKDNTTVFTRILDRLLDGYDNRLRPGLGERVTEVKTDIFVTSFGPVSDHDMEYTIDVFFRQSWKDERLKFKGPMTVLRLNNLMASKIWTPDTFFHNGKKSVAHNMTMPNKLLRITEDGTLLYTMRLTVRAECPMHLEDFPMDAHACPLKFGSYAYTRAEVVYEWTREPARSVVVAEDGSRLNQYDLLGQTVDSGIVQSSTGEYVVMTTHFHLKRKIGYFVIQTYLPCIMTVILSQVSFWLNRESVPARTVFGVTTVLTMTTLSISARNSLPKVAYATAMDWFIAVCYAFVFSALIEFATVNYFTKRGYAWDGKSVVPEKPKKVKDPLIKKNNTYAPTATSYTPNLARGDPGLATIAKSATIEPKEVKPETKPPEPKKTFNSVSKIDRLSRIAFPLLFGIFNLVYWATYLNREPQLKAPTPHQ
T1 sequence (P47870 25-512 limits assumed): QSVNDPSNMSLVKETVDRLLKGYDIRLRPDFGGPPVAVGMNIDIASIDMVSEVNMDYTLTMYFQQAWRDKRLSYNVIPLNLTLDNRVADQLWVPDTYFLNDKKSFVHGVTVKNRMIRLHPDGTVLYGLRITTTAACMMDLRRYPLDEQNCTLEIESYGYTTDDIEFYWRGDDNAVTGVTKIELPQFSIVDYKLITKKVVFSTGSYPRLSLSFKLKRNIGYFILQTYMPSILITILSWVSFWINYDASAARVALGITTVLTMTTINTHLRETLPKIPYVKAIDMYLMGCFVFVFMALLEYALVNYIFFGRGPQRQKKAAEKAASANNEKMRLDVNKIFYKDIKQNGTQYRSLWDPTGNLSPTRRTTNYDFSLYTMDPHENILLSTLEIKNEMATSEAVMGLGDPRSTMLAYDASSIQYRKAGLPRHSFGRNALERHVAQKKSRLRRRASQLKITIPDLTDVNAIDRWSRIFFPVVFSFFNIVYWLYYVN
T1 sequence (P18507 40-475 partner): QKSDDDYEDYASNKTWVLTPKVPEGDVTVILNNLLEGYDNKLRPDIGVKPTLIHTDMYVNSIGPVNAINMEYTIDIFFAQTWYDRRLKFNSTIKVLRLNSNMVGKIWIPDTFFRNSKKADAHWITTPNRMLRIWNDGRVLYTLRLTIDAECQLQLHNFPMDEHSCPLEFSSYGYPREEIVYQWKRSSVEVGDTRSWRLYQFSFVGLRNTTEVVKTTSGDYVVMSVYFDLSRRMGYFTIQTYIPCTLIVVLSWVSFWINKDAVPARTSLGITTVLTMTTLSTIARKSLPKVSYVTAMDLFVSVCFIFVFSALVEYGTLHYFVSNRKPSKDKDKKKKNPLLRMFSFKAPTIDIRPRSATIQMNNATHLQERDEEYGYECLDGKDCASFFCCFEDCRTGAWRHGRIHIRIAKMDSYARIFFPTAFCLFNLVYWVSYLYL

Row | Structure (SMILES) | Emax at 10 µM
23 | C[C@@]1(O)CC[C@H]2[C@H](CC[C@@H]3[C@@H]2CC[C@]2(C)[C@@H](C(=O)c4ccccc4)CC[C@@H]32)C1 [Compound 1] | > 500%
24 | C[C@@]1(O)CC[C@H]2[C@H](CC[C@@H]3[C@@H]2CC[C@]2(C)[C@@H](C(=O)c4nc5ccccc5s4)CC[C@@H]32)C1 [Compound 8] | 100 to 500%
